According to ChEMBL document CHEMBL1201862, “PubChem BioAssay data set” (2004):
Active and inactive are the calls of the source.

Legend:
[1] = Fluorescence-based cell-based high throughput dose response assay for inhibitors of the interaction of nucleotide-binding oligomerization domain containing 2 (NOD2) and the receptor-interacting serine-threonine kinase 2 (RIPK2).; type: functional; conditions: Homo sapiens
[2] = Luminescence Cell-Based Dose Retest to Confirm Inhibitors of Cancer Stem Cells. [Related pubchem assays (depositor defined):AID2717, AID2721]; type: functional; conditions: Homo sapiens
CHO = experiment: cytotoxicity in TLR9-MyD88 CHO cells, dose response, cytotoxicity control for TLR9-MyD88 binding inhibitor project, cell-based, luminescence (AID 588339); type: functional, hamster; conditions: Cricetulus griseus;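 also: CHO cells stably coexpressing TLR9 and MyD88 fusions from primary screen; compound exposure lasted 48 hours before viability readout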
[3] = Counterscreen for AddAB inhibitors: absorbance-based bacterial cell-based high throughput dose response assay for inhibitors of bacterial viability. [Related pubchem assays (depositor defined):AID435030, AID449728, AID449731, AID488942, AID488955, AID488956]; type: functional
[4] = CEM21 lymphoblast cell cytotoxicity, dose response, cytotoxicity control for viral fusion inhibitor project, CellTiter-Glo luminescence, cherry-picked (AID 652042); type: functional, cell-based;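 also: potency for signal decrease meaning cytotoxicity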
[5] = ZM109 Env clade C HIV-1 fusion inhibitors, dose response, HeLa effector, CEM target cells, luciferase, cherry-pick (AID 652058); type: functional, cell-based
[6] = cytotoxicity toward NIH3T3 fibroblasts, dose response, counter-screen, cell-based, ATP luminescence, mouse fibroblasts (AID 2010); type: functional;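 also: cells exposed to compound for about 90 hours before reading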
HEK293 [7] = experiment: cells; conditions: Homo sapiens
HEK293 [8] = experiment: cells; conditions: Homo sapiens; remark: listed apart in the source
[9] = inhibitors of HIV Env-driven cell fusion, dose response, cherry-pick (AID 652057); type: functional, cell-based
[10] = inhibitors of intracellular T. cruzi replication, confirmation, NIH3T3 host cells, beta-gal luminescence (AID 2044); type: functional, cell-based;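 also: intracellular parasites grown in NIH/3T3 mouse fibroblasts as host cells; luminescent beta-galactosidase reporter signal from transgenic T. cruzi replicating inside host cells; inhibitors lower the luminescence signal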
[11] = off-target signal loss in HeLa-CEM21 co-culture – HeLa F-luc CTL cells, cherry-picked, counter-screen for HIV-1 Env fusion inhibitor project, dose response (AID 652040); type: functional, cell-based;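 also: potency for signal decrease marking cytotoxic or nonspecific inhibition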
[12] = inhibitors of clade B AD8 Env fusion, dose response, cell-based, cherry-pick (AID 652062); type: functional;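 also: luciferase signal from cell-cell fusion driven by HIV-1 clade B AD8 Env; potency is for inhibitors of fusion seen as a drop in luminescence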
[13] = target: Nuclear receptor subfamily 0 group B member 1 (Homo sapiens, UniProt P51843); experiment: Luminescence-based cell-based high throughput dose response assay for inhibitors of the orphan nuclear receptor subfamily 0, group B, member 1 (DAX1; NR0B1). [Related pubchem assays (depositor defined):AID504766, AID504790]; type: functional
Chain of Nuclear receptor subfamily 0 group B member 1 (P51843 whole entry): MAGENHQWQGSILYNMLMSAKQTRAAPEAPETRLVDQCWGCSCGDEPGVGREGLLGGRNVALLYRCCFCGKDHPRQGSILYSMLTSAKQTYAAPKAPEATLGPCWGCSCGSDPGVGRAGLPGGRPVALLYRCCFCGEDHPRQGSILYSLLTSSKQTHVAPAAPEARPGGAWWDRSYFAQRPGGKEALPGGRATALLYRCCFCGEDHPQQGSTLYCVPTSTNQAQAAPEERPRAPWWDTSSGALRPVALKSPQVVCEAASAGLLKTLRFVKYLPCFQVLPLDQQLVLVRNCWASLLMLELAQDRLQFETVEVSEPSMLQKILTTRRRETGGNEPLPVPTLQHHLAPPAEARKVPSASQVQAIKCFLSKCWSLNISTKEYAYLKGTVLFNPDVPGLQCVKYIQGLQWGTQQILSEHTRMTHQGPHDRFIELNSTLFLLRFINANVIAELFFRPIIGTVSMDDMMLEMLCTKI

HEK293 [14] = experiment: cells; type: functional, cell-based; conditions: Homo sapiens
H4 = experiment: Luminescence Cell-Based Dose Response HTS to Identify Activators of 5'UTR Stem-Loop Driven Prion Protein mRNA Translation in H4 Neuroglioblastoma Cells. [Related pubchem assays: 1829 (Project Summary), 1814 (Primary HTS)]; type: functional; conditions: Homo sapiens
[15] = Luminescence Cell-Based Dose Confirmation HTS to Identify Activators of 5'UTR Stem-Loop Driven Alpha-Synuclein mRNA Translation in H4 Neuroglioblastoma Cells. [Related pubchem assays: 1829 (Project Summary), 1814 (Primary HTS)]; type: functional
[16] = Luminescence Cell-Based Dose Response HTS to Identify Activators of Luciferase Translation or Activity in H4 […] Cells. [Related pubchem assays: 1829 (Project Summary), 1814 (Primary HTS)]; type: functional
[17] = target: Beta-2 adrenergic receptor (Homo sapiens, UniProt P07550); experiment: beta2AR agonists driving receptor internalization, dose response, cell-based, FAP fluorogen, flow cytometry, cherry pick 1 (AID 588763); type: functional
Chain of Beta-2 adrenergic receptor (P07550 whole entry): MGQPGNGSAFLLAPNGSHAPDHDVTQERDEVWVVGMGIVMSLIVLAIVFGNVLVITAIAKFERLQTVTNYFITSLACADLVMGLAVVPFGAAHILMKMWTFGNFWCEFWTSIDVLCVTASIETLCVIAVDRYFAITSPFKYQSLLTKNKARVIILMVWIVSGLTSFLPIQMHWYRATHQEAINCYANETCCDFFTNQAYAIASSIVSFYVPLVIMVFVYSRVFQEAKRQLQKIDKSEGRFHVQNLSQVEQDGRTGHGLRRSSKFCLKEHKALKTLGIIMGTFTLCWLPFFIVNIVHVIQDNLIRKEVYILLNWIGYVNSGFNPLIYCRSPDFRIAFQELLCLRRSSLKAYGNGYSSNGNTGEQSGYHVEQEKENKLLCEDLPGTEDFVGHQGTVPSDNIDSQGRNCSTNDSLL

[18] = growth suppression of beta-catenin-knockout colon cells, dose response, cell-based, HCT116, human colon tumor (AID 1045); type: functional;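 also: HCT116 colon tumor cells with beta catenin knocked out; cells exposed to compound for 60 hours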
[19] = growth suppression of PTEN-null colon cells, dose response, cell-based, HCT116 PTEN knockout (AID 1047); type: functional;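 also: HCT116 colon tumor cells with PTEN knocked out; cells exposed to compound for 60 hours before readout; potency for loss of cell viability measured by luminescence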
[20] = target: T1, Microphthalmia-associated transcription factor (Homo sapiens, UniProt O75030); experiment: TRPM1 promoter luciferase signal decrease, dose response, MITF inhibitor project, cell-based, SK-MEL-5, cherry-picked, set 3 (AID 493073); type: functional
T1 sequence (O75030 whole entry): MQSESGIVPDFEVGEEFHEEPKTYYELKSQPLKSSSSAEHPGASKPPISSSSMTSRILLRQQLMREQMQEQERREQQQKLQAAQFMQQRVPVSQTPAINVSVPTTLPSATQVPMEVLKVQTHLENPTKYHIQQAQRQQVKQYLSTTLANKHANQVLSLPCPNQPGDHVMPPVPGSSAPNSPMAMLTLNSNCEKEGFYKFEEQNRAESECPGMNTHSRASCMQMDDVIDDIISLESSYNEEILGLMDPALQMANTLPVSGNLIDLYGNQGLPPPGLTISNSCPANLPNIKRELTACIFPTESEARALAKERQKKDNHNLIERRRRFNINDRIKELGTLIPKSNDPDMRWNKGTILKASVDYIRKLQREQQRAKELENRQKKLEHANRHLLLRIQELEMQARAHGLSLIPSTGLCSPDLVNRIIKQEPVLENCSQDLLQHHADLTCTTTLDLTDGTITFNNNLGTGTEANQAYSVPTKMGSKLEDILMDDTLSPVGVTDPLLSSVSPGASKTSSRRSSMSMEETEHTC

Vero [21] = experiment: cells; type: functional; conditions: Chlorocebus sabaeus
Vero [22] = experiment: cells; type: functional, cell-based; conditions: Chlorocebus sabaeus

C=CCn1c(O)nnc1Sc1ncc([N+](=O)[O-])s1
IC50 [1]: 1.32 µM (active)
AC50 [2]: 1.85 µM (active)
IC50 (CHO): 1.99 µM (active)
IC50 [3]: 21.7 µM (inactive)

CCN(CC(O)CON=C1c2ccccc2-c2ccccc21)S(=O)(=O)c1ccc(C)cc1 (configuration not stated)
AC50 [4]: 41.7 µM (active)
AC50 [5]: 2.97 µM (active)
EC50 [6]: > 60 µM (not active)
EC50 (HEK293 [7]): > 59.6 µM (inactive)
EC50 (HEK293 [8]): > 59.6 µM (inactive)
AC50 [9]: 2.96 µM (active)
EC50 [10]: 1.68 µM (active)
AC50 [11]: 4.5 µM (active)
AC50 [12]: 2.44 µM (active)

O=C(NCCN1CCCCC1)Nc1ccc([N+](=O)[O-])cc1
IC50 [13]: > 67.5 µM (inactive)
IC50 (HEK293 [14]): > 67.5 µM (inactive)

Cc1ccccc1OCC(=O)Nc1ccc2c(c1)OCCO2
IC50 [13]: > 67.5 µM (inactive)
EC50 (H4): 75.2 µM (active)
IC50 (HEK293 [14]): > 67.5 µM (inactive)
EC50 [15]: 51.8 µM (active)
EC50 [16]: 4.75 µM (active)

CC(=O)Nc1ccc(S(=O)(=O)NCCc2csc(-c3cccnc3)n2)cc1
EC50 [17]: 0.162 µM (active)

Cc1ccccc1Cn1c(=N)n(CC(=O)c2ccc([N+](=O)[O-])cc2)c2ccccc21
EC50 [18]: 8.1 µM (active)
EC50 [19]: 9.32 µM (active)
AC50 [20]: 5.63 µM (active)
CC50 (Vero [21]): 14 µM (active)
EC50 [17]: 15.2 µM (inactive)
IC50 (Vero [22]): > 25 µM (active)
